IC50 and Max inhibition data for four compounds are collected here from ChEMBL document CHEMBL1137952, “Fertilin beta peptidic liposomes inhibit fertilization by steric blockage” (Bioorg Med Chem Lett, 2004).

For assay [1], the system named is Liposome. Briefly: Inhibition of fertilization by POPC (40 or 400 nm), measured by average number of sperm fused / egg (FI); No inhibition uM. It is filed as functional, Mus musculus.
In assay [2] the test system is Liposome. In words: Inhibition of fertilization by POPC (40 or 400 nm), measured by number of zona-free eggs fertilized (FR); No inhibition. It is filed as functional, subcellular, Mus musculus.
In assay [3] the test system is Liposome. In words: Inhibition of fertilization by POPC (40 or 400 nm), measured by number of zona-free eggs fertilized (FR); No inhibition uM. It is filed as functional, subcellular, Mus musculus.
In assay [4] the test system is Liposome. Briefly: Maximal inhibition of fertilization by POPC (40 or 400 nm); No inhibition. It is filed as functional. The note with it: Mus musculus.
The subject of assay [5] is Liposome. Briefly: Inhibition of fertilization by fertilin beta peptide, measured by average number of sperm fused / egg (FI). It is filed as functional, Mus musculus.
Assay [6] deals with Liposome. In words: Inhibition of fertilization by fertilin beta peptide, measured by number of zona-free eggs fertilized (FR). It is filed as functional, subcellular, Mus musculus.
The test system of assay [7] is Liposome. Briefly: Maximal inhibition of fertilization by fertilin beta peptide. In kind it is functional, subcellular. The note with it: Mus musculus.
Assay [8] concerns Liposome. Briefly: Inhibition of fertilization by fertilin beta peptide (0.013 mol%) with 40 nm liposome, measured by number of zona-free eggs fertilized (FR); No inhibition up to 125 nm peptide. In kind it is functional, Mus musculus.
For assay [9], the system named is Liposome. Briefly: Inhibition of fertilization by fertilin beta peptide (0.1 mol%) with 40 nm liposome, measured by average number of sperm fused per egg (FI). It is filed as functional, subcellular, Mus musculus.
Assay [10] deals with Liposome. Briefly: Inhibition of fertilization by fertilin beta peptide (0.1 mol%) with 40 nm liposome, measured by number of zona-free eggs fertilized (FR). It is filed as functional, subcellular, Mus musculus.
Assay [11] has as its system Liposome. Briefly: Inhibition of fertilization by fertilin beta peptide (0.5 mol%) with 40 nm liposome, measured by average number of sperm fused per egg (FI). It is filed as functional, subcellular, Mus musculus.
In assay [12] the test system is Liposome. Briefly: Inhibition of fertilization by fertilin beta peptide (0.5 mol%) with 40 nm liposome, measured by number of zona-free eggs fertilized (FR). In kind it is functional, subcellular, Mus musculus.
The subject of assay [13] is Liposome. Briefly: Inhibition of fertilization by fertilin beta peptide (0.5 mol%) with 400 nm liposome, measured by average number of sperm fused per egg (FI). It is filed as functional, subcellular, Mus musculus.
The subject of assay [14] is Liposome. In words: Inhibition of fertilization by fertilin beta peptide (0.013 mol%) with 40 nm liposome, measured by average number of sperm fused per egg (FI); No inhibition up to 125 nm peptide. In kind it is functional, Mus musculus.
In assay [15] the test system is Liposome. In words: Inhibition of fertilization by fertilin beta peptide (0.013 mol%) with 40 nm liposome, measured by number of zona-free eggs fertilized (FR); No inhibition. It is filed as functional, subcellular, Mus musculus.
In assay [16] the test system is Liposome. In words: Inhibition of fertilization by fertilin beta peptide (0.5 mol%) with 400 nm liposome, measured by number of zona-free eggs fertilized (FR). In kind it is functional, subcellular, Mus musculus.
The test system of assay [17] is Liposome. In words: Inhibition of fertilization by fertilin beta peptide (1 mol%) with 40 nm liposome, measured by average number of sperm fused per egg (FI). In kind it is functional, subcellular, Mus musculus.
Assay [18] concerns Liposome. In words: Inhibition of fertilization by fertilin beta peptide (1 mol%) with 40 nm liposome, measured by number of zona-free eggs fertilized (FR). It is filed as functional, subcellular, Mus musculus.
The subject of assay [19] is Liposome. Briefly: Inhibition of fertilization by fertilin beta peptide (5 mol%) with 40 nm liposome, measured by average number of sperm fused per egg (FI). In kind it is functional, subcellular, Mus musculus.
For assay [20], the system named is Liposome. Briefly: Inhibition of fertilization by fertilin beta peptide (5 mol%) with 40 nm liposome, measured by number of zona-free eggs fertilized (FR). In kind it is functional, subcellular, Mus musculus.
The subject of assay [21] is Liposome. Briefly: Maximal inhibition of fertilization by fertilin beta peptide (0.5 mol%) with 40 nm liposome. The note with it: Mus musculus. In kind it is functional, subcellular.
Assay [22] has as its system Liposome. In words: Maximal inhibition of fertilization by fertilin beta peptide (1 mol%) with 40 nm liposome. In kind it is functional, subcellular. The note with it: Mus musculus.
In assay [23] the test system is Liposome. Briefly: Inhibition of fertilization by fertilin beta peptide (1 mol%) with 40 nm liposome, measured by average number of sperm fused /egg (FI); No inhibition uM peptide. In kind it is functional, subcellular, Mus musculus.
Assay [24] relates to Liposome. Briefly: Inhibition of fertilization by fertilin beta peptide (1 mol%) with 40 nm liposome, measured by number of zona-free eggs fertilized (FR); No inhibition. In kind it is functional, subcellular, Mus musculus.
In assay [25] the test system is Liposome. Briefly: Inhibition of fertilization by fertilin beta peptide (1 mol%) with 40 nm liposome, measured by number of zona-free eggs fertilized (FR); No inhibition uM peptide. It is filed as functional, subcellular, Mus musculus.
The test system of assay [26] is Liposome. Briefly: Maximal inhibition of fertilization by fertilin beta peptide (1 mol%) with 40 nm liposome; No inhibition. The note with it: Mus musculus. It is filed as functional, subcellular.

SMILES strings stand for the structures. Calls of active or inactive are those of the source. The rule behind the calls is not given here. Non-standard residues stand in square brackets, D forms with d. Residues, ends and D or L forms follow the SMILES beside them. ξ: configuration not given here. *: point of attachment. Myristoyl = CCCCCCCCCCCCCC(=O)*; Dap = NC[C@H](N)C(=O)O; ξDap = NCC(N)C(=O)O; GABA = NCCCC(=O)O

Turning to `CCCCCCCC/C=C\CCCCCCCC(=O)OC(COC(=O)CCCCCCCCCCCCCCC)COP(=O)([O-])OCC[N+](C)(C)C` (stereo not given), the IC50 result in assay [1], in assay [2] and in assay [3] was “Not Active” each time. Moreover, the Max inhibition entry in assay [4] is “inactive”.
For `CC(=O)NC[C@H](NC(C)=O)C(=O)NCCCC(=O)N[C@@H](C)C(=O)N[C@@H](CCC(N)=O)C(=O)N[C@@H](CC(=O)O)C(=O)N[C@@H](CCC(=O)O)C(=O)N[C@@H](CS)C(=O)N[C@@H](CC(=O)O)C(=O)N[C@H](C(=O)N[C@H](C(=O)N[C@@H](CCC(=O)O)C(=O)N[C@@H](Cc1ccc(O)cc1)C(N)=O)[C@@H](C)O)C(C)C` (Ac-[Dap](Ac)[GABA]AQDECDVTEY-NH2), the IC50 stood at 524 µM in assay [5] and 500 µM in assay [6]. In assay [7], this compound came in with a Max inhibition of 71%.
For `CCCCCCCCCCCCCC(=O)NCC(NC(=O)CCCCCCCCCCCCC)C(=O)NCCCC(=O)N[C@@H](C)C(=O)N[C@@H](CCC(N)=O)C(=O)N[C@@H](CC(=O)O)C(=O)N[C@@H](CCC(=O)O)C(=O)N[C@@H](CS)C(=O)N[C@@H](CC(=O)O)C(=O)N[C@H](C(=O)N[C@H](C(=O)N[C@@H](CCC(=O)O)C(=O)N[C@@H](Cc1ccc(O)cc1)C(N)=O)[C@@H](C)O)C(C)C` (stereo not given in full) (Myristoyl-[ξDap](Myristoyl)[GABA]AQDECDVTEY-NH2), the IC50 result in [8] is “Not Active”; in assay [9], 0.5 µM; in assay [10] it was 0.5 µM; in assay [11], 0.5 µM; in assay [12], 2800000000000 liposomes ml-1; in [12] (read-out: IC50), 0.34 µM. Also, the IC50 in [13] is 0.92 µM; in assay [14], “Not Active”; in assay [15] it was “Not Active”; in assay [16] it was 59000000000 liposomes ml-1; in [16] (read-out: IC50), 0.75 µM; in [17], 2.4 µM. The IC50 is 11000000000000 liposomes ml-1 in [18]; 2.5 µM in assay [18] (read-out: IC50); 5 µM in assay [19]; 4200000000000 liposomes ml-1 in [20]; 5 µM in assay [20] (read-out: IC50). The Max inhibition was determined as 93% in assay [21] and 97% in [22].
For `CCCCCCCCCCCCCC(=O)NCC(NC(=O)CCCCCCCCCCCCC)C(=O)NCCCC(=O)N[C@@H](CC(=O)O)C(=O)N[C@@H](Cc1ccc(O)cc1)C(=O)N[C@@H](CCC(=O)O)C(=O)N[C@H](C(=O)N[C@@H](CCC(=O)O)C(=O)N[C@@H](CCC(N)=O)C(=O)N[C@@H](C)C(=O)N[C@@H](CS)C(=O)N[C@H](C(=O)N[C@@H](CC(N)=O)C(=O)O)[C@@H](C)O)C(C)C` (stereo not given in full) (Myristoyl-[ξDap](Myristoyl)[GABA]DYEVEQACTN-OH), the IC50 entry in assay [23], in assay [24] and in assay [25] was “Not Active” throughout. The Max inhibition result in assay [26] is “inactive”.
